From patent US9328143B2, “Peptide derivatives and use thereof as carriers for molecules in the form of conjugates” (VECT-HORUS, priority 2008, dated 2016)
Read-outs that look alike come from different tables or passages of the source.

How the values were obtained:
hLDLR [1] = target: T1, hLDLR (Homo sapiens, UniProt P01130); test: FACS: binding of bacterial viruses expressing peptides to HUVEC; parameters: endogenous in cells; host or cells: HUVEC (human umbilical vein endothelial cells), not genetically modified
T1 sequence (P01130 22-860): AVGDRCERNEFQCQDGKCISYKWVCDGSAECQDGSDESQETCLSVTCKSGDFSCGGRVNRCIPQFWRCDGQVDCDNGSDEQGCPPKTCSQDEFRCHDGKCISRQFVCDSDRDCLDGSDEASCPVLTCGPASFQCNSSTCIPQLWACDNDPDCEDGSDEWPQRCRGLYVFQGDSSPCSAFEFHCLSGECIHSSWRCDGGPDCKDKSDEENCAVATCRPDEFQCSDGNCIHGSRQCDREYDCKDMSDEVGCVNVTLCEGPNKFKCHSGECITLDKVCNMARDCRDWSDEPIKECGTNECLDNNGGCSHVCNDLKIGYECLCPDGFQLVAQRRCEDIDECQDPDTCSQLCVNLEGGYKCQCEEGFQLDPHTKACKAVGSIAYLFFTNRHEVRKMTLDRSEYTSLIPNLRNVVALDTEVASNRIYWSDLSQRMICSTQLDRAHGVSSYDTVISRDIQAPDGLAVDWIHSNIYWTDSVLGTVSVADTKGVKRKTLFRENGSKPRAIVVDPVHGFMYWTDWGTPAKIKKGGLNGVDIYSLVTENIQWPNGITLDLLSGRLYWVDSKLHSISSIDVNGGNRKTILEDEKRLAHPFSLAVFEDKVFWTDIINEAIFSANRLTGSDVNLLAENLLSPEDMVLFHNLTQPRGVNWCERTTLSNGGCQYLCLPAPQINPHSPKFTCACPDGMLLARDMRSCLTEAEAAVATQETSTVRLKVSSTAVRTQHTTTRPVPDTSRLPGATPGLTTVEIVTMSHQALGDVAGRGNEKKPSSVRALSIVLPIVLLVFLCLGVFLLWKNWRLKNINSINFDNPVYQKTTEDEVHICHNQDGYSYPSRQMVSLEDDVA
Procedure: Evaluation by FACS of the interaction between HUVEC and two clones of bacterial viruses expressing peptides, one cyclic (SEQ ID NO: 11), the other linear (SEQ ID NO: 21), with affinity for hLDLR, compared with control bacterial viruses not expressing peptides with affinity for this receptor.
(§1) Qualitative immunocytochemistry was supplemented with quantitative flow cytometry (FACS) with suspended cells (GFP cell line, CHO-hLDLR-GFP cell line, human fibroblasts, HUVEC). These cells were grown in culture medium, mechanically unbound and dissociated (without trypsin), centrifuged, resuspended and incubated in the presence of various bacterial virus clones and anti-LDLR antibody, for 20 min at 4° C. in order to avoid any process of endocytosis. After washings, the bacterial viruses bound to cells were visualised with anti-viral envelope protein antibody. FACS analyses were carried out with a FACSCanto system (Becton Dickinson) using BD FACSDiva software. The number of positive cells was standardised with 5,000 events for each test. The results were expressed in arbitrary units of fluorescence.
(§2) FIGS. 9, 10, 11 correspond to the results obtained for peptides SEQ ID NO: 11, SEQ ID NO: 12 and SEQ ID NO: 21 on cells of the CHO-hLDLR-GFP cell line (FIG. 9), human fibroblasts (FIG. 10) and HUVEC (FIG. 11).

[2] = In situ perfusion in mouse, transport across the blood-retinal barrier; type: in vivo; conditions: mouse, in vivo
Source text: (§3) This strategy of in situ brain perfusion normally carried out in the rat was adapted for mouse (Dagenais et al., 2000, J Cereb Blood Flow Metab., 20(2), 381-6) in order to broaden its application for evaluating the parameters of transport kinetics at the BBB and the blood-retinal barrier, in transgenic and KO mutant mice for the receptors, enzymes or transporters of active substances. It involves catheterisation of a carotid artery in anaesthetised OF 1 mice and ligature of some branches of this carotid artery (external, thyroidal, occipital) in order to specifically perfuse the internal carotid and pterygopalatine arteries, which are used to evaluate the uptake in the brain of the vectors and conjugates. The catheter makes it possible to replace general circulation by infusion with a well-controlled perfusate (bicarbonate buffer, plasma or blood) by passing by the carotid. Oxygenated Krebs bicarbonate buffer is first used to evaluate the capacities of the vectors and conjugates to gain access to the brain. After catheterisation of the carotid, endogenous blood flow is stopped by sectioning the ventricles of the heart in order to avoid the mixture of buffer with blood and elevation in blood pressure. The duration of the fixed flow-rate perfusion is monitored. The buffer perfusion can be extended up to 20 min, or up to 1 h in the presence of oxygen transporters (washed erythrocytes) for studies of receptor-mediated transport (RMT).
In addition, the Kin of these various peptides, across the blood-retinal barrier (BRB), were also determined. Kin of SEQ ID NO: 11=1.2±0.2×10^−4 ml/s/g Kin of SEQ ID NO: 48=2.4±0.3×10^−4 ml/s/g Kin of SEQ ID NO: 73=0.0±0.0×10^−4 ml/s/g Kin of SEQ ID NO: 72=11.5±3.3×10^−4 ml/s/g Kin of SEQ ID NO: 74=1.8±0.2×10^−4 ml/s/g

hLDLR [3] = target: T1, hLDLR; test: FACS: binding of bacterial viruses expressing peptides to CHO-hLDLR-GFP cells; parameters: expressed in transfected cells; conditions: peptide expressed by bacterial virus clone, vs control bacterial viruses, 20 min at 4° C.
Procedure: Evaluation by FACS of the interaction between CHO-hLDLR-GFP cells and a clone of bacterial viruses expressing peptide SEQ ID NO: 11 with affinity for hLDLR compared with control bacterial viruses not expressing peptides with affinity for this receptor.
as §1, §2

[4] = In situ brain perfusion in mouse, transport across the BBB; type: in vivo; conditions: mouse, in vivo
Procedure: The in situ brain perfusion technique (in adult male OF1 mouse) is used here to select the best vectors and to provide proof of their mechanism of action for their passage in the brain across the BBB.
Radioactive peptides with high specific radioactivity (SRA, up to 100 Ci/mmol) are prepared by a strategy of acylation of the N-term amine function by tritiated propionic (or propanoic) anhydride or tritiated N-propionyl-succinimide (NPS).
The tritiation reaction of peptide vectors SEQ ID NO: 11 and SEQ ID NO: 48 in the N-term position by propionylation is carried out in DMF (1 mg peptide in 100 μl to 450 μl according to solubility) by adding 0.1 equivalent of tritiated NPS for 5 min at room temperature, then 0.9 equivalent of cold NPS (non-tritiated) for 1 h, and then a new equivalent of cold NPS for 5 h. The reaction medium is then left at 4° C. overnight and purified the following day by HPLC. The SRA for each tritiated peptide is between 5 Ci/mmol and 10 Ci/mmol (theoretically on the order of 7.7 Ci/mmol). The total quantity of radioactivity prepared by synthesis is between 600 μCi and 950 μCi.
The techniques briefly summarised below were developed to study the distribution in the brain of active substances and, in particular, the role of the BBB and, more particularly, of LDLR in the penetration of these molecules in the brain. In situ brain perfusion techniques are among the most technically demanding and the most difficult to perform in the mouse. However, in situ brain perfusion (like in vitro models) enables total control of the composition of the artificial perfusate in order to maintain the cells and vascularisation of the brain under normal physiological and anatomical conditions within the animal, without the disrupting factor of systemic distribution.
as §3
The study of peptide vector SEQ ID NO: 11 made it possible to determine its brain transport or transfer coefficient (Kin). The duration of brain perfusion for these experiments is 5 min with a perfusate flow rate of 2 ml/min. Thus, the calculation of the Kin (volume of distribution over time of brain perfusion) of peptide vector SEQ ID NO: 11 gives a value of 3.5±0.2×10^−4 ml/s/g.

hLDLR [5] = target: T1, hLDLR; test: FACS on HUVEC: competition between peptides expressed by bacterial viruses and natural ligand LDL; type: binding; parameters: endogenous in cells; host or cells: HUVEC (human umbilical vein endothelial cells), not genetically modified
Source text: Evaluation by FACS on HUVEC of competition between the peptides expressed by the bacterial viruses with affinity for LDLR and its natural ligand LDL.
I—Graph representing the percentage of shift of the fluorescence signal in zone Q2 of graphs A-H obtained by FACS. […] Adding LDL leads to an 85% loss of signal in Q2 in […], indicating competition between the bacterial virus corresponding to peptide sequence SEQ ID NO: 21 and LDL at the site where LDL binds to hLDLR. The equally strong signal in Q2 of the bacterial viruses that express peptide SEQ ID NO: 11 (shift greater than 70% compared to control bacterial viruses) is only slightly shifted (17%) by adding LDL.
First, it is shown that the binding rate of bacterial viruses expressing peptides with affinity for hLDLR (SEQ ID NO: 21 and SEQ ID NO: 11 are used here as examples) is proportional to the level of LDLR expression by HUVEC. FACS experiments carried out in the presence of LDL made it possible to show and quantify a strong shift (85%) of LDL by linear peptides (for example SEQ ID NO: 21), but a small shift (17%) by cyclic peptides (for example SEQ ID NO: 11).

[6] = tested on: mouse brain vessel endothelial cells; test: Tail vein injection of bacterial viruses in C57BL6 mice, immunostaining of brain sections; type: in vivo; conditions: 15 min and 2 h post injection, peptide expressed by bacterial viruses
Procedure: Double immunofluorescent staining of frozen sections of C57BL6 mouse brain, 2 h after mouse tail vein injection of control bacterial viruses (A-B) and bacterial viruses expressing a peptide (SEQ ID NO: 1) with affinity for hLDLR and mLDLR (C-D). Brain vessels are stained with anti-mouse IgG, in green (A-C); bacterial viruses are stained with anti-viral envelope protein antibody, in red (B-D).
Bacterial viruses expressing peptides with affinity for hLDLR (SEQ ID NO: 1 is described here for example) and control bacterial viruses (not expressing peptide with affinity for hLDLR) were injected into the tail veins of C57BL6 mice anaesthetised with halothane. After 15 min and 2 h post injection, the mice were sacrificed and perfused with 0.9% NaCl. Brains, livers and kidneys were frozen in isopentane and frozen sections were prepared for double immunohistochemical staining to visualise blood vessels with anti-mouse IgG and anti-viral envelope protein antibody to visualise bacterial viruses bound to endothelial cells in vivo.

hLDLR [7] = target: T1, hLDLR; test: Immunocytochemistry: bacterial viruses on CHO-GFP (control) and CHO-hLDLR-GFP cell lines; type: binding; parameters: expressed in transfected cells; conditions: CHO cell line expressing GFP alone; peptide expressed by bacterial virus clone
Source text: CHO cell lines stably expressing A—GFP alone (green), and B—hLDLR-GFP (green), and immunostaining with an anti-viral envelope protein antibody of a clone of bacterial viruses expressing a peptide (SEQ ID NO: 1) with affinity for hLDLR (red dots). Cell nuclei are stained with Hoechst (blue, A1 and B1). GFP fluorescence is visible in green (A2 and B2), that of the staining of the viral envelope of the bacterial virus by the viral anti-protein antibody is visible in red (A3 and B3) and the superimposing of red and green stains is visible in yellow/orange (A4 and B4).
The bacterial virus clones identified following the binding of the peptides, which they express and which bind to hLDLR-GFP expressed by the stable CHO-hLDLR-GFP cell line, were brought together with LDLR cells and, after intensive washing, were detected with an antibody directed against the viral envelope protein of the bacterial virus followed by a second antibody coupled with Alexa 594 (FIG. 7).

hLDLR [8] = target: T1, hLDLR; test: FACS: binding of bacterial viruses expressing peptides to human fibroblasts; parameters: endogenous in cells; host or cells: HUVEC (human umbilical vein endothelial cells), not genetically modified; conditions: peptide expressed by bacterial virus clone, vs control bacterial viruses
Procedure: Evaluation by FACS of the interaction between human fibroblasts and a clone of bacterial viruses expressing peptide SEQ ID NO: 12 with affinity for hLDLR, compared with control bacterial viruses not expressing peptides with affinity for this receptor.
as §1, §2

[9] = Pan et al., 2004; cited from earlier work
[10] = Demeule et al., 2008; cited from earlier work

## DSGLCMPRLRGCDPR [SEQ ID NO: 11]
hLDLR [1]; peptide expressed by bacterial virus clone, vs control bacterial viruses
  shift of the signal in Q2 (FACS): significant shift
hLDLR [1]; peptide expressed by bacterial viruses, without LDL
  percentage of shift of the fluorescence signal in zone Q2: greater than 70%
[2]
  Kin across the blood-retinal barrier (BRB): 1.2±0.2 ×10^−4 ml/s/g
hLDLR [3]
  shift of the signal in Q2 (FACS): significant shift
[4]
  Kin (brain transport or transfer coefficient): 3.5±0.2 ×10^−4 ml/s/g
hLDLR [5]; FACS, LDL added
  effect of LDL on binding of peptides expressed by bacterial viruses: No effect
hLDLR [5]; peptide expressed by bacterial viruses, in the presence of LDL
  loss/shift of signal in Q2 on adding LDL: 17%

## HLDCMPRGCFRN [SEQ ID NO: 1]
[6]
  binding to brain vessel wall endothelial cells in vivo: bind to vessel wall endothelial cells
hLDLR [7]
  binding of bacterial viruses to cells that do not express hLDLR: do not bind

## MTVMPTGLWNPLIPS [SEQ ID NO: 12]
hLDLR [8]
  shift of the signal in Q2 (FACS): significant shift

## RAP protein: RAP protein; literature Kin value
[9]
  Kin: 1e-05 mL/s/g

## transferrin: transferrin, ligand of TfR; literature Kin value
[10]
  Kin: 0.0003 mL/s/g
